These results are taken from patent publication US7528168B2, “Inhibitors of the fatty acid oxidation for the prophylaxis and/or the treatment of chronic and/or atopic skin diseases” (priority 2002, dated 2009).

The subject of series [1] is transplanted human psoriasis skin. Briefly: Psoriasis model, ULEX staining (keratinocyte differentiation). Conditions: 3 weeks, placebo 55±19%. It is filed as in vivo, BNX mice. The procedure: (§1) The psoriasis model described by Wrone-Smith and Nickoloff (1996) was used. 5 mm non-lesional skin biopsies from five psoriatic patients were each split in four pieces and transplanted on 20 immuno-deficient BNX mice, i.e. four groups of five mice each. Psoriasis was induced in all mice by injection with donors super-antigen-activated blood cells. After psoriasis had developed, mice were treated for 3 weeks by applying either placebo-cream, cream containing a corticosteroid (betamethasone), 1% Etomoxir or 30% Etomoxir daily on the skin. The cream containing 30% Etomoxir was removed after 30 minutes while the other creams were left on the skin.
(§2) After the treatment period, liver and blood of the mice were analyzed for their CPT1 activity and GOT/GPT levels. Furthermore, the epidermal thickness, in particular the depth of reti ridges, the number of Ki67 positive cells and the percentage of ULEX-positive cells (this marker stains the upper layers of the epidermis in normal skin and the whole epidermis in psoriatic skin) in the epidermis were determined.
(§3) Histological stainings are performed on cryo-preserved tissues. Diagonal cross sections (8μm) are cut (see FIG. 20), covering all skin-layers (located at the top layer are the stratum corneus and epidermis of the transplanted human biopsy and at the bottom the murine tissue is located, forming a base for the transplanted human skin).
Sections are stained with biotinylated Europaeus Agglutinin 1 and evaluated at a microscopic magnification of 200×. Two representative sections are evaluated. The thickness of both the ULEX positive cell-layer (distribution of ULEX) as well as the ULEX negative layer of the total section is measured using a microscopic ocular with intergraded graduation-lines (ruler). From this the average ratio of ULEX positive differentiation is calculated (indicated as percentage of epidermis positive for ULUX).

The target of series [2] is T1, CPT1 (Mus musculus, UniProt P97742).
T1 construct: A small piece of frozen liver (appr. 200 mg) was homogenized in 600 μl of cold sucrose buffer; from tissue; host or cells: liver of BNX mice (mitochondrial enriched fraction)
T1 sequence (P97742 1-773): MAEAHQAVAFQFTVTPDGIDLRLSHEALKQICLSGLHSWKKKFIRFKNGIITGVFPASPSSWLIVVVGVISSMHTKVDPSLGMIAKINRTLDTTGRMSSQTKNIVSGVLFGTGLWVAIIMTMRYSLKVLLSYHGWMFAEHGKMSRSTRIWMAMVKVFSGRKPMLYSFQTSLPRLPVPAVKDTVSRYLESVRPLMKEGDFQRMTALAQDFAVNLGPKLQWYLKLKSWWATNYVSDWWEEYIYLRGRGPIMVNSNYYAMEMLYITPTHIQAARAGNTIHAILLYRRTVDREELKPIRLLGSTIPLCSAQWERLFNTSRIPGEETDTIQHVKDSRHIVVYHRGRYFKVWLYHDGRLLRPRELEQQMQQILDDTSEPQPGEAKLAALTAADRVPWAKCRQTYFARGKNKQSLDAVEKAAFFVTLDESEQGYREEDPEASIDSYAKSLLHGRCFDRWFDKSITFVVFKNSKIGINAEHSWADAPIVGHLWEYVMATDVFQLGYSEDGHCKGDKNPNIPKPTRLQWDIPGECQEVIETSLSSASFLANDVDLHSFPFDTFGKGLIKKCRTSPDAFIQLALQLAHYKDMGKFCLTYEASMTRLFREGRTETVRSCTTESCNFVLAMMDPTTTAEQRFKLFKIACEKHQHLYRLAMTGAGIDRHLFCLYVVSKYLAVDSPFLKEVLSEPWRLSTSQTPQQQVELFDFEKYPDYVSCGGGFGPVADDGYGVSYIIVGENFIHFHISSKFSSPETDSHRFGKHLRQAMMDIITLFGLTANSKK
Description: CPT1 activity in liver of BNX mice after three weeks topical treatment. It is filed as in vivo. The settings on record: 3 weeks, placebo set 100%. How it is done: as §1, §2
(§4) A small piece of frozen liver (appr. 200 mg) was homogenized in 600 μl of cold sucrose buffer by 8-10 strokes with tight pestle of dounce homogenizer. Homogenate was centrifuged at 700×g for 10 min at 4° C. Supernatant was again centrifuged at 20000×g for 20 min at 4° C. Pellet was resuspended in 1400 μl buffer A and kept on ice for further analysis or stored at −80° C.
160 μl of bidestilled water was added to wells of a 96-well plate. For the standard curve 0 μg, 1 μg, 2 μg, 3 μg, 4 μg and 5 μg of BSA (BSA stock: 1 mg/ml from New England Biolabs) was added in duplicates to the first […]. 1 μl of the liver samples and the blood samples were added in duplicates to the wells. Finally 40 μl dye reagent concentrate (Bio-Rad protein assay) was added and mixed by pipetting up and down. After 5 to 30 min OD at 595 was measured versus reagent blank (0 μg BSA). For the calibration curve the OD was plotted against the concentration of BSA and total protein concentration of the liver samples was calculated in μg/μl.
20 μg of total protein of each liver sample and 300 μg of total protein of each plasma sample were added in 1.5 ml Eppendorf tubes (safe lock) and filled up to 100 μl with buffer A (all in duplicates). Background control was buffer A only. The tubes were preincubated for exactly 5 min at 30° C. prior to the addition of 105 μl of reaction mix. Again samples were incubated for exactly 5 min at 30° C. Reactions were stopped by adding 800 μl of 6% perchloric acid and stored on ice. […] Finally, either 100 μl (liver samples) or 150 μl (plasma samples) of the butanol phase were mixed with 1 ml Microscint0 in a 24 well-plate and cpm values were measured with the scintillation counter from Canberra Packard. […]

For series [3], the system named is transplanted human psoriasis skin. Briefly: Psoriasis model, hematoxyline staining (epidermal thickness). The settings on record: 3 weeks, placebo 138±24 μm; for Epidermal thickness: three mice. Type of series: in vivo, BNX mice. The procedure:
as §1, §2, §3
Sections are stained with hematoxyline and evaluated at a microscopic magnification of 200×. Two sections taken round the middle of the biopsy are evaluated. Thickness measurements are performed of the total section using a microscopic ocular with intergraded graduation-lines (ruler). From this, the average epidermal thickness measurements for ridges and the average of the total epidermis (mean of ridges and inter-ridges) are calculated in μm (taken into account magnification factor).

Series [4] shares this test system. Description: Psoriasis model, Ki-67 staining (keratinocyte proliferation). Type of series: in vivo, BNX mice. Conditions: 3 weeks. How it is done:
as §1, §2, §3
Sections are stained with mu-∝Hu monoclonal Ab and evaluated at a microscopic magnification of 400×. Two representative sections are evaluated. The total number of positive cells are counted of the total section and indicated per unit-length. A unit-length is a microscopic view (of a part of the section) at a magnification of 400× (see FIG. 20). Per section several unit-lengths are counted (minimum of 8). From this the average number of Ki-67 positive cells per unit-length is calculated.

Series [5] can be described thus: Animal experiment, deaths during topical treatment. It is filed as in vivo, BNX mice. The settings on record: 30% Etomoxir cream left on the skin; probably because they licked off the cream. The procedure: The psoriasis model described by Wrone-Smith and Nickoloff (1996) was used. 5 mm non-lesional skin biopsies from five psoriatic patients were each split in four pieces and transplanted on 20 immuno-deficient BNX mice, i.e. four groups of five mice each. Psoriasis was induced in all mice by injection with donors super-antigen-activated blood cells. After psoriasis had developed, mice were treated for 3 weeks by applying either placebo-cream, cream containing a corticosteroid (betamethasone), 1% Etomoxir or 30% Etomoxir daily on the skin. […]

The test system of series [6] is CPT1. Description: CPT1 activity in total blood cells of BNX mice after three weeks topical treatment. It is filed as in vivo. Conditions: 3 weeks. How it is done: as §1
After the treatment period, liver and blood of the mice were analyzed for their CPT1 activity and GOT/GPT levels. Furthermore, the epidermal thickness, in particular the depth of reti ridges, the number of Ki67 positive cells and the percentage of ULEX-positive cells (this marker stains the upper layers of the epidermis in normal skin and the whole epidermis in psoriatic skin) in the epidermis were determined. […]
160 μl of bidestilled water was added to wells of a 96-well plate. […] After 5 to 30 min OD at 595 was measured versus reagent blank (0 μg BSA). For the calibration curve the OD was plotted against the concentration of BSA and total protein concentration of the liver samples was calculated in μg/μl. […]

In series [7] the test system is CPT1. Description: Inhibition of CPT1 activity by the salt of Etomoxir in vitro, pooled blood cell extract. Type of series: biochemical, BNX mice. How it is done:
500 μl of total blood cells were frozen and drawn three tines to break up the cells. Samples were diluted by adding 500 μl buffer A and then centrifuged at 20000×g for 20 min at 4° C. Solid Pellets were resuspended in 200 μl buffer A and kept on ice for further analysis or stored at −80° C.
(§5) 2 μl of a 100× stock of Etomoxir-salt (0; 0.1; 1.0 and 10 mM) dissolved in DMSO were added in 1.5 ml Eppendorf tubes in duplicates. 2× activation mix was premixed on ice with either 15 μg of total protein of each liver sample or 300 μg of total protein of each plasma sample (final volume per reaction was 98 μl). 98 μl of this mix was added to each tube containing the 2 μl of inhibitor and tubes were left at 30° C. for exactly 30 min. Then 105 μl of reaction mix were added to start the CPT1 reaction. Again samples were incubated for exactly 5 min at 30° C. […] Finally, either 150 μl of the butanol phase were mixed with 1 ml Microscint0 in a 24 well-plate and cpm values were measured with the scintillation counter from Canberra Packard. P values were calculated with the t-test of the SigmaPlot 2001 software.
(§6) To determine the sensitivity of the CPT1 activity in response to Etomoxir, cell pellet samples were pooled and treated with increasing amounts of Etomoxir. […] 85% of the measured activity in the blood cells was Etomoxir insensitive and therefore the relevance of this assay is questionable.

In series [8] the target is T1, CPT1. Briefly: Inhibition of CPT1 activity by the salt of Etomoxir in vitro, mitochondrial enriched fractions of liver. Type of series: biochemical, BNX mice. How it is done: as §4
as §5, with “min.” for “min. Then 105 μl of reaction mix were added to start the CPT1 reaction. Again samples were incubated for exactly 5 min at 30° C.”
as §6

Molecules are shown by their SMILES.

Take `C[C@H]1C[C@H]2[C@@H]3CCC4=CC(=O)C=C[C@]4(C)[C@@]3(F)[C@@H](O)C[C@]2(C)[C@@]1(O)C(=O)CO` [corticosteroid, betamethasone]: in series [1] (corticosteroid cream daily), the “Percentage of ULEX-positive cells in the epidermis” value came to 24±7%. For the same compound, in series [2] (corticosteroid (betamethasone) cream daily), the “CPT1 activity in liver compared to the placebo group” value is recorded as 83%. The Average epidermal thickness in series [3] (corticosteroid cream daily) came to 81±9 μm. Moreover, the “Number of Ki67 positive cells” value in series [4] (corticosteroid cream daily, placebo 55±37) is 10±6 positive cells/unit-length.

With `CCOC(=O)C1(CCCCCCOc2ccc(Cl)cc2)CO1` (stereo not shown) [Etomoxir, 2-(6-(4-chlorophenoxy)hexyl)oxirane-2-carboxylic acid ethyl ester], the “Percentage of ULEX-positive cells in the epidermis (differentiation rate)” value is reported as 17±11% in series [1] (1% Etomoxir cream) and 18±8% in series [1] (30% Etomoxir cream). Besides, the “CPT1 activity in liver compared to the placebo group” value in series [2] (1% Etomoxir cream daily) worked out at 73%; in series [2] (30% Etomoxir cream daily, excluding liver of dead animals), 59%; in series [2] (30% Etomoxir cream daily, including the two dead animals), 40%. For the same compound, the Deaths of animals entry in series [5] was “two out of five animals died”. The “CPT1 activity in blood cell pellets versus placebo group” value in series [6] (1% Etomoxir cream daily, p value 0.01) was “significantly higher”; in series [6] (30% Etomoxir cream daily, p value>0.05), “not significantly different”. Besides, the Epidermal thickness amounted to 88±10 μm in series [3] (1% Etomoxir cream daily) and 69±4 μm in series [3] (30% Etomoxir cream daily (removed after 30 minutes)). Moreover, the “Number of Ki67 positive cells as compared to the placebo group” value in series [4] (1% Etomoxir cream) and in series [4] (30% Etomoxir cream) was “significant decrease” in each case. The “Reduction of CPT1 activity in pooled blood cell pellet samples” value in series [7] (increasing amounts of Etomoxir (salt), activity without Etomoxir = 100%) was roughly 15%. Besides, the “Part of the measured CPT1 activity in blood cells that is Etomoxir insensitive” value in series [7] (pooled cell pellet samples) is reported as roughly 85%. Also, in series [8], the “Sensitivity of CPT1 activity measured in liver to Etomoxir” value was “highly Etomoxir sensitive”.
